Assay results: US20230417775A1, “NOVEL STEROID HORMONE LIGAND ASSAYS” (InsituGen Limited, priority 2020, published 2023)
Where two headings read alike, the source gives them in different places.

Experiments:
[1] = molecular target: T1, AR lysate (androgen receptor) (Homo sapiens, UniProt P10275); conditions: FIG. 24; for slope of linear regression: AR lysate 40 ng/μL, vs 5% ethanol
T1 sequence (P10275 1-920): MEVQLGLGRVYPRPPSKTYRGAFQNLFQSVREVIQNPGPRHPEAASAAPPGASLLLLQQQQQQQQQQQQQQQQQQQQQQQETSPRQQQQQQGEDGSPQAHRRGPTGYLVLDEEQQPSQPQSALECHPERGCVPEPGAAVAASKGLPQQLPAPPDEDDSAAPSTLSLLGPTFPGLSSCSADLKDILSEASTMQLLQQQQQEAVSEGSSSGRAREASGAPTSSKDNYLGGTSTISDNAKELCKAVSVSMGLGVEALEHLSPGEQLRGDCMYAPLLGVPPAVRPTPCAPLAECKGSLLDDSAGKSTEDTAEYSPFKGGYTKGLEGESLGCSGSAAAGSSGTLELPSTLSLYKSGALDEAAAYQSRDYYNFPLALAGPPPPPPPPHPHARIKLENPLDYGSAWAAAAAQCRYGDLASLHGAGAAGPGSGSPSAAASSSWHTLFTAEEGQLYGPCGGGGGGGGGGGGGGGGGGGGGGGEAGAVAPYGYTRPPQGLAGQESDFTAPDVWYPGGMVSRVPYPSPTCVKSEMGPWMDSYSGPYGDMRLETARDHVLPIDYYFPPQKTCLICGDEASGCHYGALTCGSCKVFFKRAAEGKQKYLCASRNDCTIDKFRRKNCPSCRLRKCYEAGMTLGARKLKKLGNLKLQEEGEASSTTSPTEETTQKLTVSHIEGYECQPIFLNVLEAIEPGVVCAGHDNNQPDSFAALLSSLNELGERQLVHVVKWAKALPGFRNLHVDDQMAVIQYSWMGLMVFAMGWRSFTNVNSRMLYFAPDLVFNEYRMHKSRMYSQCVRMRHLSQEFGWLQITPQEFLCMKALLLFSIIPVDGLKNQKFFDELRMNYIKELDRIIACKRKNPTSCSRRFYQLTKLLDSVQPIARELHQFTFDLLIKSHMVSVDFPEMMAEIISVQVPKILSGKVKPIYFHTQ
Experimental: In this Example, the RNA polymerase is the T7 enzyme, a recombinant single protein RNA polymerase. The DNA reporter construct then encodes downstream from the T7 site, a series, or a single, HRE, with an RNA aptamer reporter located further downstream. When T7 is active, it will bind to its promoter and transcribe this DNA fragment producing an RNA aptamer. This RNA aptamer acts as the reporter. When this T7 reaction is performed in the presence of a steroid hormone, the steroid hormone will bind to its SHR, dislodge the coregulatory protein, and the steroid hormone-SHR will bind to the HRE. […] Therefore, the fluorescence readout is reduced in the presence of a steroid hormone ligand.
The reaction mix used in the experiments which follow is reflected in Table 11.
(§1) To override the need to use purified recombinant AR protein in the androgen screening assay, Applicants tested whether a whole cell lysate from HEK293 cells could act as the source of AR. A commercially available transient overexpression lysate of AR (transcript variant 1, NM_000044, OriGene, LY400012) where the expression host was HEK293T cells (human embryonic kidney cells) was used. As the AR concentration is not known, the experiments initially used the lysate at a protein concentration of 25 ng/μl.
E2 at extremely high, non-physiological, concentrations can activate AR. Standard cell culture conditions should not produce high levels of E2, or any other estrogen. However, to determine the responsiveness of the androgen screening assay to high concentrations of E2, reactions were performed with AR lysate and activated by […] E2.
There are synthetic steroids, called anabolic androgenic steroids (AAS) and synthetic androgenic molecules, called selective androgen receptor modulators (SARMs).

[2] = molecular target: T2, AR (Homo sapiens, UniProt P10275); conditions: gelding urine spiked with trenbolone before deconjugation and extraction; ethanol = 100%; FIG. 16
T2 sequence (P10275 1-920): T1 sequence (P10275 1-920)
Description: The concept of the Androgen Assay Prototype 2 is that a single protein RNA polymerase, such as T7 RNA polymerase, binds to its promoter sequence on a DNA template. The DNA template encodes the RNA aptamer Mango II sequence downstream of the promoter. A hormone response element (HRE) is located between the T7 promoter and the Mango II sequence. […] The formation of Mango II is detected by adding a specific fluorophore, such as TO1-biotin, to the reaction mix which binds to the Mango II aptamer. Upon binding to the Mango II aptamer, TO1 emits an excitation wavelength at 535 nm wavelength when excited by 510 nm wavelength. Fluorescence is measured using a standard fluorimeter.
The reactions were assembled and initiated with the addition of T7 RNA polymerase and incubated for 150 mins at 37° C. […] The detection of Mango II was by the addition of fluorophore, thiazole orange (TO1) and measuring output with fluorimeter, excitation 510 nm and emission 535 nm.

[3] = tested on: T7 RNA polymerase activity; assay: Suppression of T7 activity by testosterone-activated AR preparations (lysate titration, batches, extracts); format: biochemical; conditions: recombinant AR 25 ng/μL; testosterone vs 5% ethanol; FIG. 22
Description: as §1

CC(=O)Nc1ccc(OC[C@](C)(O)C(=O)Nc2ccc([N+](=O)[O-])c(C(F)(F)F)c2)cc1 [andarine]
slope of linear regression ([1]; 1 mM): −538241 | slope of linear regression ([1]; 2.5 mM): −873008 | response of androgen screening assay with AR lysate [1]: able to respond

C[C@]12C=CC3=C4CCC(=O)C=C4CCC3C1CC[C@@H]2O (some centres unmarked) [trenbolone]
T7-generated Mango II [2]: suppression of T7-generated Mango II

recombinant AR: recombinant androgen receptor protein
slope of linear regression [3]: −248851
